Literature values, collected in patent US20110092532A1 (priority 2009, published 2011).
Like-named read-outs stand apart in the source and are kept apart here.

What was measured:
Cat = conditions: subcutaneous
[1] = system: patients with motor fluctuations
Dog = conditions: in vivo, sc
healthy volunteers = conditions: healthy male volunteers, no anti-emetic drugs
[2] = rats, after oral ingestion, portal vein not shunted
[3] = SL apomorphine, three patients with motor fluctuations

Compound: CN1CCc2cccc3c2[C@H]1Cc1ccc(O)c(O)c1-3 [apomorphine]
- Reversible Toxicity Seen (Cat): 136 mg/kg
- duration of effect [1, 3]: 15 to 100 min
- latency to effect [1, 3]: 20 to 40 min
- "off" periods ([1]; one patient, SL apomorphine as adjunct with levodopa, during one month): large decrease
- Reversible Toxicity Seen (Dog): 36 to 71 mg/kg
- amount of intravenous apomorphine which will reliably induce emesis (healthy volunteers): 2.5 mg
- Tmax (intranasal route): 23 min
- lag time (intranasal route): 2.8 min
- Tmax (subcutaneous route): 18 min
- lag time (subcutaneous route): 3.9 min
- tissue levels of apomorphine [2]: not detectable
